Values joined by “and” are separate entries in the source; they are usually repeats but may differ in a detail not shown here. Equal entries are not always repeated. Where two headings read alike, the source gives them in different places.
Tests used:
P. falciparum FCB [1] = settings: read-out: IC50 FCB; means ± SEM, N 4; ref 2 Sidhu et al. 2006; cited from earlier work
P. falciparum NF10^YF [2] = test system: P. falciparum NF10^YF; parameters: method as in ref 1 Veiga et al. 2016; settings: means ± SEM, N 6; ref 1 Veiga et al. 2016; read-out: IC50 NF10YF; cited from earlier work
P. falciparum Dd2^I218F [3] = test system: P. falciparum Dd2^I218F; parameters: key to Phenotype, Dd2^I218F: S: sensitive; R: resistant; settings: cited from earlier work
P. falciparum NF10^NF [4] = test system: P. falciparum NF10^NF; parameters: method as in ref 1 Veiga et al. 2016; settings: means ± SEM, N 6; ref 1 Veiga et al. 2016; read-out: IC50 NF10NF; cited from earlier work
[5] = test system: P. falciparum Dd2-Polδ Flask 2; assay: ABS susceptibility after resistance selection, recrudescent line; format: cell-based, Plasmodium falciparum; settings: for % Parasite survival: Dd2 Pol D Flask 2, rep 1-5
Procedure: (§1) P. falciparum ABS parasites were cultured at 3% hematocrit in human O^+ RBCs in RPMI-1640 media supplemented with 25 mM HEPES, 50 mg/L hypoxanthine, 2 mM L-glutamine, 0.21% sodium bicarbonate, 0.5% (w/v) AlbuMAXII (Invitrogen) and 10 μg/mL gentamycin. Culture flasks were kept in modular incubator chambers (Billups-Rothenberg) in a 5% O2, 5% CO2, and 90% N2 atmosphere at 37°C. Synchronized ring-stage parasites were obtained by two consecutive rounds of treatment with 5% D-sorbitol in 48-hour intervals. […] This was done by exposing cultures at 1% hematocrit and 0.3% parasitemia in 96-well plates in the presence of drugs in a two-fold 10 or 12-point serial dilution in duplicate along with drug-free controls. After a 72-hour incubation, parasite survival was assessed by flow cytometry on an iQue flow cytometer (Sartorius) using SYBR Green and MitoTracker Deep Red FM (Life Technologies) as nuclear stain and vital dye, respectively. Parasite survival was determined as a percentage relative to drug-free control. IC50 values were interpolated from log concentration versus response curves in Prism 9 (GraphPad Prism Software Inc.).
(§2) Resistance to LDT-623 was assessed using single-step in vitro resistance selection protocols. […] Dd2-Pol δ is a hypermutable line with two point mutations in DNA polymerase δ that compromise its proofreading activity Cultures were monitored daily by thin blood smears until live parasites were no longer detectable. Drug-containing media was changed daily until parasites cleared, and every other day thereafter. Cultures were passaged once weekly by reducing the volume by 25% and replacing 1/3 of RBCs. Recrudescence monitoring was carried out twice a week by thin blood smears for 60 days. In the event of recrudescence, parasite susceptibility to LDT-623 was tested as described above.

[6] = test system: P. falciparum Dd2-Polδ Flask 1; assay: as above; format: cell-based, Plasmodium falciparum; settings: for % Parasite survival: Dd2 Pol D Flask 1, rep 1-5
Procedure: as §1, §2

P. falciparum Dd2^H97Y = assay: ABS susceptibility, pfcrt-edited line; format: cell-based; settings: Plasmodium falciparum
Procedure: as §1

P. falciparum 7G8^F145I = assay: ABS susceptibility, pfcrt-edited line; format: cell-based; settings: Plasmodium falciparum
Procedure: as §1

P. falciparum 7G8^7G8 = assay: ABS susceptibility, pfcrt-edited line; format: cell-based; settings: Plasmodium falciparum
Procedure: as §1

P. falciparum Dd2^F145I = assay: ABS susceptibility, pfcrt-edited line; format: cell-based; settings: Plasmodium falciparum
Procedure: as §1

P. falciparum 7G8^C350R = assay: ABS susceptibility, pfcrt-edited line; format: cell-based; settings: Plasmodium falciparum
Procedure: as §1

P. falciparum Dd2^3D7 = assay: ABS susceptibility, pfcrt-edited line; format: cell-based; settings: Plasmodium falciparum
Procedure: as §1

P. falciparum Dd2^Dd2 = assay: ABS susceptibility, pfcrt-edited line; format: cell-based; settings: Plasmodium falciparum
Procedure: as §1

P. falciparum Dd2^M343L = assay: ABS susceptibility, pfcrt-edited line; format: cell-based; settings: Plasmodium falciparum
Procedure: as §1

P. falciparum Dd2^T93S = assay: ABS susceptibility, pfcrt-edited line; format: cell-based; settings: Plasmodium falciparum
Procedure: as §1

P. falciparum Dd2^I218F [7] = assay: ABS susceptibility, pfcrt-edited line; format: cell-based; settings: Plasmodium falciparum
Procedure: as §1

P. falciparum Dd2^G353V = assay: ABS susceptibility, pfcrt-edited line; format: cell-based; settings: Plasmodium falciparum
Procedure: as §1

P. falciparum NF10^YF [8] = assay: ABS susceptibility, pfmdr1-modified line; format: cell-based; settings: Plasmodium falciparum
Procedure: as §1

P. falciparum FCB [9] = assay: ABS susceptibility, pfmdr1-modified line; format: cell-based; settings: Plasmodium falciparum
Procedure: as §1

P. falciparum NF10^NF [10] = assay: ABS susceptibility, pfmdr1-modified line; format: cell-based; settings: Plasmodium falciparum
Procedure: as §1

P. falciparum FCB^KD1 = assay: ABS susceptibility, pfmdr1-modified line; format: cell-based; settings: Plasmodium falciparum
Procedure: as §1

[11] = Dd2I218F, mean ± SEM, ref 2 (Dhingra et al., 2019)

For `CCN(CC)CCCC(C)Nc1ccnc2cc(Cl)ccc12` (centres unmarked) [CQ, chloroquine], the IC50 (P. falciparum FCB [1]) is listed as 217 ± 34.6 nM, the IC50 (P. falciparum NF10^YF [2]) is listed as 347 ± 24.4 nM and the IC50 (P. falciparum Dd2^I218F [3]; [11]) is listed as 36.7 ± 4.3 nM. The IC90 (P. falciparum Dd2^I218F [3]; [11]) was 85.3 ± 4.9 nM, the “Phenotype, Dd2^I218F” value (P. falciparum Dd2^I218F [3]; ref [19],[20],[51]) was “S” and the IC50 (P. falciparum NF10^NF [4]) was 216 ± 15.3 nM.
In the case of `COc1cc2nccc(Nc3cccc(Oc4ccccc4)c3)c2cc1OC` [LDT-623], the “% Parasite survival” value ([5]; 0.09 uM) is reported as 88.00% and 80.84% and 100.00% and 86.03%, the “% Parasite survival” value ([5]; 0.19 uM) is reported as 82.04% and 70.05% and 89.31% and 86.03% and 100.00% and the “% Parasite survival” value ([5]; 0.78 uM) is reported as 0.00% and 7.11% and 0.21%. For the same molecule, the “% Parasite survival” value ([5]; 1.56 uM) was 1.80% and 2.03% and 1.07% and 0.00%, the “% Parasite survival” value ([5]; 3.12 uM) was 7.60% and 5.20% and 3.53% and 0.39% and 7.52% and the “% Parasite survival” value ([5]; 25 uM) was 0.00% and 7.74% and 3.09%. For the same molecule, the “% Parasite survival” value ([5]; 50 uM) was 0.00% and 5.80%, the “mean AUC of survival curve” value ([5]; recrudescent parasites, Flask 2) was 22.3 and the “% Parasite survival” value ([6]; 0.09 uM) was 100.00% and 83.53% and 90.04% and 99.83%. For the same molecule, the “% Parasite survival” value ([6]; 0.19 uM) was 92.44% and 73.57% and 80.08% and 80.97% and 100.00%, the “% Parasite survival” value ([6]; 0.78 uM) was 0.00% and the “% Parasite survival” value ([6]; 1.56 uM) was 0.00% and 1.04%. The “% Parasite survival” value ([6]; 50 uM) was 0.00% and 0.35%, the “mean AUC of survival curve” value ([6]; recrudescent parasites, Flask 1) was 53.8 and the IC50 (P. falciparum Dd2^H97Y) was 416 ± 59.6 nM. The IC90 (P. falciparum Dd2^H97Y) was 5270 ± 99.2 nM, the IC50 (P. falciparum 7G8^F145I) was 439 ± 22.7 nM and the IC90 (P. falciparum 7G8^F145I) was 6570 ± 3250 nM. It also gave an IC50 (P. falciparum 7G8^7G8) of 579 ± 67.5 nM, an IC90 (P. falciparum 7G8^7G8) of 980 ± 133 nM and an IC50 (P. falciparum Dd2^F145I) of 541 ± 83.7 nM. The IC90 (P. falciparum Dd2^F145I) was 3790 ± 1730 nM, the IC50 (P. falciparum 7G8^C350R) was 576 ± 49.4 nM and the IC90 (P. falciparum 7G8^C350R) was 4050 ± 3080 nM. It also gave an IC50 (P. falciparum Dd2^3D7) of 232 ± 10.5 nM, an IC90 (P. falciparum Dd2^3D7) of 455 ± 51.1 nM and an IC50 (P. falciparum Dd2^Dd2) of 452 ± 31 nM. For the same molecule, the IC90 (P. falciparum Dd2^Dd2) was 6340 ± 1660 nM, the IC50 (P. falciparum Dd2^M343L) was 416 ± 50 nM and the IC90 (P. falciparum Dd2^M343L) was 6860 ± 333 nM. For the same molecule, the IC50 (P. falciparum Dd2^T93S) was 227 ± 9 nM, the IC90 (P. falciparum Dd2^T93S) was 429 ± 41.7 nM and the IC50 (P. falciparum Dd2^I218F [7]) was 435 ± 20.1 nM. The IC90 (P. falciparum Dd2^I218F [7]) was 3980 ± 1680 nM, the IC50 (P. falciparum Dd2^G353V) was 456 ± 9.6 nM and the IC90 (P. falciparum Dd2^G353V) was 6510 ± 1540 nM. The IC50 (P. falciparum NF10^YF [8]; read-out: IC50 NF10YF) was 360.2 ± 1.9 nM, the IC90 (P. falciparum NF10^YF [8]; read-out: IC90 NF10YF) was 562.9 ± 2.8 nM and the IC50 (P. falciparum FCB [9]; read-out: IC50 FCB) was 414 ± 12.9 nM. For the same molecule, the IC90 (P. falciparum FCB [9]; read-out: IC90 FCB) was 4430 ± 164 nM, the IC50 (P. falciparum NF10^NF [10]; read-out: IC50 NF10NF) was 400 ± 28.2 nM and the IC90 (P. falciparum NF10^NF [10]; read-out: IC90 NF10NF) was 580 ± 13 nM. The IC50 (P. falciparum FCB^KD1; read-out: IC50 FCBKD1) was 488 ± 12 nM and the IC90 (P. falciparum FCB^KD1; read-out: IC90 FCBKD1) was 7650 ± 1120 nM.

Reference: article PMC11521309, “A novel 4-aminoquinoline chemotype with multistage antimalarial activity and lack of cross-resistance with PfCRT and PfMDR1 mutants” (PLOS Pathogens, 2024)
